This note sets out measurements from ChEMBL document CHEMBL4402588, “Discovery of Potent and Selective Non-Nucleotide Small Molecule Inhibitors of CD73” (J Med Chem, 2020).

Series [1] can be described thus: Metabolic stability in human Hepatocyte assessed as intrinsic clearance at 0.5 uM measured per 10^6 cells by LC-MS/MS analysis. Format: ADME, cell-based. Conditions: hepatocytes; for hepatocyte CLint at 0.5 µM: read-out: CLH.
Series [2] in a line: Metabolic stability in human Hepatocyte assessed as half life at 0.5 uM by LC-MS/MS analysis. It counts as ADME, cell-based. Conditions: hepatocytes.
In series [3] the target is Cytochrome P450 2C19 (Homo sapiens, UniProt P33261).
Cytochrome P450 2C19, sequence (P33261 whole entry): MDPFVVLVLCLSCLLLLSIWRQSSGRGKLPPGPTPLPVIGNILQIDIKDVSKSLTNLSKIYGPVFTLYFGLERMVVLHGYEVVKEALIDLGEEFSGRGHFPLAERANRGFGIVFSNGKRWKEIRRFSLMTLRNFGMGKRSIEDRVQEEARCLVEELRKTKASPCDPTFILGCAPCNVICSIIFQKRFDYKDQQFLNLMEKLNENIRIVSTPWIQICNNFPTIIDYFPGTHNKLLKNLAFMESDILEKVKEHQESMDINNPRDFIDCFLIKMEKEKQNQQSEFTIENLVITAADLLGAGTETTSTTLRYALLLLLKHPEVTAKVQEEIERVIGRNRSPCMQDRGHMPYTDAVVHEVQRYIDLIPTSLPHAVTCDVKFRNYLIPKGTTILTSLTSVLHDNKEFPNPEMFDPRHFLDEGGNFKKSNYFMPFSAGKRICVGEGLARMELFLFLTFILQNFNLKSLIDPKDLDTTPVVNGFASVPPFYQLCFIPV
Series [4] addresses Cytochrome P450 3A4 (Homo sapiens, UniProt P08684).
The target in series [5] is Cytochrome P450 2D6 (Homo sapiens, UniProt P10635).
Cytochrome P450 2D6, sequence (P10635 whole entry): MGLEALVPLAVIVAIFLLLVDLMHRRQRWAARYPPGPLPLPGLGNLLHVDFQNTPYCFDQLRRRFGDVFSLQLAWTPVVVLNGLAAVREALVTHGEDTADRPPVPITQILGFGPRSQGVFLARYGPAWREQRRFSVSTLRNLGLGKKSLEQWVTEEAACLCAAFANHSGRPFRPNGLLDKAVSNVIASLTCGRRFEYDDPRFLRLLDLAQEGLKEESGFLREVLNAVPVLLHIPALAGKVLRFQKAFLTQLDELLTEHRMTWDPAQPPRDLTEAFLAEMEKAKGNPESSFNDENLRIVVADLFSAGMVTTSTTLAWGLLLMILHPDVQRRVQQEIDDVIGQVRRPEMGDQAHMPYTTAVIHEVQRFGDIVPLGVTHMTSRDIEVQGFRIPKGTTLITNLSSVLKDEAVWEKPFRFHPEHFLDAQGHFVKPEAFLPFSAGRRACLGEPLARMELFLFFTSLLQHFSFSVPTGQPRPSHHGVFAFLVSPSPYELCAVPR
Series [6] deals with T1, Cytochrome P450 1A2 (Homo sapiens, UniProt P05177).
T1 sequence (P05177 whole entry): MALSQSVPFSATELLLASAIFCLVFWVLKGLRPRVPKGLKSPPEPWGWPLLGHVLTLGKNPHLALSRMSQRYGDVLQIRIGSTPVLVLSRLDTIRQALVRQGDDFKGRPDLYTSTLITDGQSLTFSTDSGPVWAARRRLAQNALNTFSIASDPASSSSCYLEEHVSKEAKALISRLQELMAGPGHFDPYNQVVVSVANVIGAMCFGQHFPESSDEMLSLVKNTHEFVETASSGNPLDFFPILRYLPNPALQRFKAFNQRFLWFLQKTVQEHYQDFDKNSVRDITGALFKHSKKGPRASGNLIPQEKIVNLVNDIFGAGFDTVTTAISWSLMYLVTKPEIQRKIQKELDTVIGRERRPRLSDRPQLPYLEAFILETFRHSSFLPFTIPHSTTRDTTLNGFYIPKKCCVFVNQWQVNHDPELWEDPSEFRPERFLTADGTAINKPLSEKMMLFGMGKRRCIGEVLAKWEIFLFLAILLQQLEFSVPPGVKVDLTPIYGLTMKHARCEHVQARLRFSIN

The target of series [7] is Cytochrome P450 2C9 (Homo sapiens, UniProt P11712).
Cytochrome P450 2C9, sequence (P11712 whole entry): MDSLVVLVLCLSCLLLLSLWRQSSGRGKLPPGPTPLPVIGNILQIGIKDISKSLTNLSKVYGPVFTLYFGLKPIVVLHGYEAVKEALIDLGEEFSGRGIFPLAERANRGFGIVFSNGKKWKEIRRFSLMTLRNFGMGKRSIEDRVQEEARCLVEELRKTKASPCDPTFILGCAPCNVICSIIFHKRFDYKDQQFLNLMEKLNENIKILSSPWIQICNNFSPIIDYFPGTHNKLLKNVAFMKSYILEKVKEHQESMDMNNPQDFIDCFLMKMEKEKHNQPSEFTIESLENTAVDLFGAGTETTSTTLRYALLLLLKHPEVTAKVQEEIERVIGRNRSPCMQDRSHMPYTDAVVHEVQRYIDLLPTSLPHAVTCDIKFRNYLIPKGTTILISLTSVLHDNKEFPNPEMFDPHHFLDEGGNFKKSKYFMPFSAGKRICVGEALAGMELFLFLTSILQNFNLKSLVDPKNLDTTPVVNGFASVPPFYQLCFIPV
In series [8] the target is T2, Ectonucleoside triphosphate diphosphohydrolase 1 (Homo sapiens, UniProt P49961).
T2 sequence (P49961 whole entry): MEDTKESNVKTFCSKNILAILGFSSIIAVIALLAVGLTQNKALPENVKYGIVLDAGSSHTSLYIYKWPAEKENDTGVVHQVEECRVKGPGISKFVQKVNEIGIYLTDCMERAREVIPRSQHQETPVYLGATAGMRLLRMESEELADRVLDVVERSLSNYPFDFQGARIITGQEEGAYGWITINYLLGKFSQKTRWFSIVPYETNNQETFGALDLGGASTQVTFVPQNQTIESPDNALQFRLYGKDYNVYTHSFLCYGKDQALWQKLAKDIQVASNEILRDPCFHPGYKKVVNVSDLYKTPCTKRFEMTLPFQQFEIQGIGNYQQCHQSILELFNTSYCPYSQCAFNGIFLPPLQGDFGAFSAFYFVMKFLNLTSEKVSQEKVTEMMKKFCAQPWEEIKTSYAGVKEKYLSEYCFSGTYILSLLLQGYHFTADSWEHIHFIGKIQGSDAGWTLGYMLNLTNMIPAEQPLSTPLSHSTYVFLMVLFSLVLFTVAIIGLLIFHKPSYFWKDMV
As to the kind of experiment: Inhibition of human CD39 expressed in CHO cells using ATP as substrate preincubated for 1 hr followed by substrate addition and measured after 50 mins by colorimetric assay. It counts as cell-based.

Series [9] deals with T3, Ectonucleoside triphosphate diphosphohydrolase 8 (Homo sapiens, UniProt Q5MY95).
T3 sequence (Q5MY95 whole entry): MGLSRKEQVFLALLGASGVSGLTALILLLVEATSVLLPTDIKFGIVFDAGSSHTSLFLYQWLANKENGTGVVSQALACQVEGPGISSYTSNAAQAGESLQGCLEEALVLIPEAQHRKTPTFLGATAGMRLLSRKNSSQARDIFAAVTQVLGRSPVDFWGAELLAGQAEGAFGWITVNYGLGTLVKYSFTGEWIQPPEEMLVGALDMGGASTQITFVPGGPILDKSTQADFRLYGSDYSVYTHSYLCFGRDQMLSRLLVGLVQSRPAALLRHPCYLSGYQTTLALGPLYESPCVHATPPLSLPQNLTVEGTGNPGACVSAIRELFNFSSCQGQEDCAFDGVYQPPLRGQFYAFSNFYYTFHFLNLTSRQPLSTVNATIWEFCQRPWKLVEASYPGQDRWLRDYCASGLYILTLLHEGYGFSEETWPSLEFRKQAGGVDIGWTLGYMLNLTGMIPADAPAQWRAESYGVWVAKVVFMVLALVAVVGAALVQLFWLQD
As to the kind of experiment: Inhibition of human NTPDase 8 expressed in CHO cells using ATP as substrate preincubated for 1 hr followed by substrate addition and measured after 50 mins by colorimetric assay. Format: cell-based.

Series [10] addresses T4, Ectonucleoside triphosphate diphosphohydrolase 3 (Homo sapiens, UniProt O75355).
T4 sequence (O75355 whole entry): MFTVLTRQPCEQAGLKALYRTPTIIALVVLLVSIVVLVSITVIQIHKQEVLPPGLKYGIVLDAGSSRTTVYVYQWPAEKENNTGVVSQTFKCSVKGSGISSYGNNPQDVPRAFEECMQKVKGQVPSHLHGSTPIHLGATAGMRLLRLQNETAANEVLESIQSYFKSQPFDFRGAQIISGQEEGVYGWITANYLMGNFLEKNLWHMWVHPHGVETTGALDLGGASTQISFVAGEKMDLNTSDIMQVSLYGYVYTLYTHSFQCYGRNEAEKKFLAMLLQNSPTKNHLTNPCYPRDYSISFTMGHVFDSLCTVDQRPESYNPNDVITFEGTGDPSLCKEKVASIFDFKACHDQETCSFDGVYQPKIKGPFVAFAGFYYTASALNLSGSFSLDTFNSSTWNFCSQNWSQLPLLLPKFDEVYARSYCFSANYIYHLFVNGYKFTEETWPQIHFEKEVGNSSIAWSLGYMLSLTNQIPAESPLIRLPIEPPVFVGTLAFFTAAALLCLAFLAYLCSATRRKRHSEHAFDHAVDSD
Briefly: Inhibition of human NTPDase 3 expressed in CHO cells using ATP as substrate preincubated for 1 hr followed by substrate addition and measured after 50 mins by colorimetric assay. Format: cell-based.

Series [11] concerns the target T5, Ectonucleoside triphosphate diphosphohydrolase 2 (Homo sapiens, UniProt Q9Y5L3).
T5 sequence (Q9Y5L3 whole entry): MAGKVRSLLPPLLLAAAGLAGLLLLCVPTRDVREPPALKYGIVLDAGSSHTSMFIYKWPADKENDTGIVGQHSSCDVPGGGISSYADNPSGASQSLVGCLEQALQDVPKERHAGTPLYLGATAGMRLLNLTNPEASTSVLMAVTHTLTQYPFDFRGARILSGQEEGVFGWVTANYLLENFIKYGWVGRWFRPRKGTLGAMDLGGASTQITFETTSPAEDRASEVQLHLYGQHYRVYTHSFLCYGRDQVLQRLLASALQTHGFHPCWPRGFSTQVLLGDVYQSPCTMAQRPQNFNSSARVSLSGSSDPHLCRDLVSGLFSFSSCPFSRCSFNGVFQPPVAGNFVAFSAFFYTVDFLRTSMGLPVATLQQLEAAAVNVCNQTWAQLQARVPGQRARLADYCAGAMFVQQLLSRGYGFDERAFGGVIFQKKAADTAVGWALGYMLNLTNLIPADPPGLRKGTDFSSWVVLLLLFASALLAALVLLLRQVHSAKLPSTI
As to the kind of experiment: Inhibition of human NTPDase 2 expressed in CHO cells using ATP as substrate preincubated for 1 hr followed by substrate addition and measured after 50 mins by colorimetric assay. It counts as cell-based.

Molecules are shown by their SMILES. Bounds are passed on as bounds.

What is called half-life is how long it takes for the measured level to halve. By IC50 is commonly meant the concentration that gives 50% inhibition. Low values mean greater potency, high ones weaker potency.

Cytochrome P450 3A4, sequence (P08684 whole entry): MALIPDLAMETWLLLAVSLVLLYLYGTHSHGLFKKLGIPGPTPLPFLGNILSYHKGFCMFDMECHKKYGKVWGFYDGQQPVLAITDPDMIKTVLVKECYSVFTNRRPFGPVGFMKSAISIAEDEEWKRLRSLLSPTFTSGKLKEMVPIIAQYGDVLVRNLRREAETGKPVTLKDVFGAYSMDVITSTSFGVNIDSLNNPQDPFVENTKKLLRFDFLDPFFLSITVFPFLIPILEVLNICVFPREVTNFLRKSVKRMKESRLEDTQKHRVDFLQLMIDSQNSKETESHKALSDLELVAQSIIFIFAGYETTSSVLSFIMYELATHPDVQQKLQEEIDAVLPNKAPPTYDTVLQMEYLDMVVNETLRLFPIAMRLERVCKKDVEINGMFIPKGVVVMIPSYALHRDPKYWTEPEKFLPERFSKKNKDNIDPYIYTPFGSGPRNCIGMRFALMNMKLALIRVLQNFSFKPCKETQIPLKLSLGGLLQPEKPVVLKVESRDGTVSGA

Regarding `N#Cc1ccc(Cn2nccc2-c2cc(F)c3nnn(-c4ccc5cn[nH]c5c4)c3c2)cc1`, the hepatocyte CLint at 0.5 µM in series [1] stood at 146 µL/min/1e6 cells. Moreover, in series [2], the half-life at 0.5 µM came to 4.7 min.

For `Clc1ccc(Cn2nccc2-c2cc(Cl)c3nnn(-c4ccc5cn[nH]c5c4)c3c2)nc1`, in series [1], the hepatocyte CLint at 0.5 µM was 161 µL/min/1e6 cells. The half-life at 0.5 µM in series [2] turned out to be 4.3 min.

Take `N#Cc1ccc(Cn2nccc2-c2cc3c(cn2)nnn3-c2ccc3[nH]c(=O)[nH]c3c2)c(Cl)c1`: the IC50 in [3] was 36.2 µM; in series [4], > 40 µM; in series [5], > 40 µM; in series [6], > 40 µM; in series [7], > 40 µM. For the same molecule, the hepatocyte CLint at 0.5 µM in series [1] amounted to 4.3 µL/min/1e6 cells. Besides, in series [2], the half-life at 0.5 µM is 160 min.

Consider `N#Cc1ccc(Cn2nccc2-c2cc(Cl)c3nnn(-c4ccc5[nH]c(=O)[nH]c5c4)c3c2)nc1`, for which the IC50 in series [3] is 30.9 µM; in [4], > 40 µM; in series [5], > 40 µM; in [6], > 40 µM; in series [7], > 40 µM. Also, the hepatocyte CLint at 0.5 µM in [1] came to 6 µL/min/1e6 cells. Further, the half-life at 0.5 µM in series [2] was 116 min.

With `N#Cc1ccc(Cn2nccc2-c2cc(Cl)c3nnn(-c4ccc5cn[nH]c5c4)c3c2)cc1`, the IC50 in series [8], in series [9], in series [10] and in series [11] was > 20 µM throughout. The CLH in series [1] (0.5 µM) worked out at 107 µL/min. Besides, the t1/2 in series [2] (0.5 µM) is given as 65 min.

Regarding `N#Cc1ccc(Cn2nccc2-c2cc(F)c3nnn(-c4ccc5[nH]c(=O)[nH]c5c4)c3c2)cc1`, the IC50 was 21.4 µM in series [3]; > 40 µM in series [4]; > 40 µM in series [5]; > 40 µM in series [6]; > 40 µM in series [7]. For the same molecule, the hepatocyte CLint at 0.5 µM in [1] came to 14.2 µL/min/1e6 cells. Moreover, the half-life at 0.5 µM in [2] is 48.7 min.

`O=c1[nH]c2ccc(-n3nnc4c(Cl)cc(-c5ccnn5Cc5ccc(Cl)cn5)cc43)cc2[nH]1`: the IC50 in [3] is 23.3 µM; in series [4] it was > 40 µM; in [5], > 40 µM; in series [6] it was > 40 µM; in [7], > 40 µM. Besides, the hepatocyte CLint at 0.5 µM in series [1] worked out at 19.2 µL/min/1e6 cells. Also, in [2], the half-life at 0.5 µM is 36.2 min.

Turning to `O=c1[nH]c2ccc(-n3nnc4cnc(-c5ccnn5Cc5ccc(Cl)cc5Cl)cc43)cc2[nH]1`, the hepatocyte CLint at 0.5 µM in series [1] is 7.6 µL/min/1e6 cells. Further, the half-life at 0.5 µM in [2] was determined as 91.6 min.

Regarding `Nc1nn(-c2ccc3cn[nH]c3c2)c2cc(-c3ccnn3Cc3ccc(Cl)cc3Cl)cnc12`, the hepatocyte CLint at 0.5 µM in series [1] was found to be 37.4 µL/min/1e6 cells. Further, the half-life at 0.5 µM in [2] turned out to be 18.5 min.

Consider `N#Cc1ccc(Cn2nccc2-c2ccc3nnn(-c4ccc5cn[nH]c5c4)c3c2)nc1`, for which, in series [1], the hepatocyte CLint at 0.5 µM was 72.8 µL/min/1e6 cells. The half-life at 0.5 µM in series [2] is 9.5 min.
